Assay results from article PMC6099591, “(2E,5E)-2,5-Bis(3-hydroxy-4-methoxybenzylidene) cyclopentanone Exerts Anti-Melanogenesis and Anti-Wrinkle Activities in B16F10 Melanoma and Hs27 Fibroblast Cells” (Molecules : A Journal of Synthetic Chemistry and Natural …, 2018).

Tests used:
[1] = test system: tyrosinase; test: Western blot, tyrosinase protein level in α-MSH-stimulated B16F10 cells; assay type: cell-based, murine; conditions: 1 and 10 µM, 24 h, then α-MSH (5 µM) 48 h; normalized by β-actin
Protocol: (§1) Figure 5 Effects of BHCP on the expression levels of phosphorylation of CREB, MITF, and tyrosinase in α-MSH-stimulated B16F10 melanoma cells. Cells were preincubated with or without 1 and 10 μM BHCP for 24 h and were stimulated with α-MSH (5 μM) for an additional 48 h. Harvested cells were lysed and then examined for the expression levels of p-CREB, CREB, MITF, and tyrosinase by Western blotting (a); The protein levels of tyrosinase (b); MITF (c); and p-CREB (d) were quantitated with CS analyzer software. Tyrosinase, MITF, and p-CREB protein levels were normalized by β-actin. Data are expressed as mean ± S.E.M. of three independent experiments. ^# p < 0.05 versus untreated control; * p < 0.05 versus α-MSH stimulation.
(§2) Lysate samples were boiled for 10 min in gel-loading buffer (125 mM Tris-HCl, 4% sodium dodecyl sulfate (SDS), 10% 2-mercaptoethanol, and 0.2% bromophenol blue; pH 6.8) at a volume ratio of 1:1. The total protein equivalents for each sample were separated by SDS-polyacrylamide gel electrophoresis (PAGE) using acrylamide gels as based on the procedure described by Laemmli and transferred to PVDF membranes at 80 V for 2 h using the wet-transfer system. […] Antibody labeling was detected by enhanced chemiluminescence in accordance with the manufacturer’s instructions. Protein quantitation was performed using the Davinch-Chemi TM. […]

[2] = test system: p-p65 (Ser536); test: Western blot, nuclear p-p65 (Ser536) in UV-induced Hs27 cells; assay type: cell-based, human; conditions: 1 and 10 µM, 24 h, then UV (50 mJ/cm2) 24 h; normalized to TFIIB
Protocol: (§3) Figure 6 Effects of BHCP on the expression levels of p-p65 (Ser536) in UV-induced Hs27 human fibroblast cells. Cells were preincubated with or without 1 and 10 μM BHCP for 24 h and were stimulated with UV (50 mJ/cm^2) for an additional 24 h. Nuclear protein levels of p-p65 (Ser536) were determined by Western blotting (a); After normalization to TFIIB, relative ratios were quantitated with CS analyzer software (b); Cytosol protein levels of p65 was determined by Western blotting (c); After normalization to β-actin, ratios were quantitated with CS analyzer software (d). Data are expressed as mean ± S.E.M. of three independent experiments. ^# p < 0.05 versus untreated control; * p < 0.05 and ** p < 0.01 versus […].
(§4) The Hs27 cells were washed with ice-cold PBS and harvested. […]
(§5) Lysate samples were boiled for 10 min in gel-loading buffer (125 mM Tris-HCl, 4% sodium dodecyl sulfate (SDS), 10% 2-mercaptoethanol, and 0.2% bromophenol blue; pH 6.8) at a volume ratio of 1:1. […] Antibody labeling was detected by enhanced chemiluminescence in accordance with the manufacturer’s instructions. Protein quantitation was performed using the Davinch-Chemi TM. […]

[3] = test system: cellular tyrosinase in B16F10 melanoma cells; test: Cellular tyrosinase activity assay in α-MSH-induced B16F10 cells; assay type: cell-based, murine; conditions: 24 h pretreatment then α-MSH (5 µM) 48 h, α-MSH only control 181%
Protocol: (§6) Figure 4 Inhibition of melanin contents (a) and cellular tyrosinase activity (b) of BHCP on B16F10 melanoma cells. […] Melanin content of the pellet was evaluated at 405 nm (a); intracellular tyrosinase activity was determined with L-DOPA as the substrate, and the absorbance of L-DOPA chrome was read at 492 nm (b). Data are expressed as mean ± S.E.M of three independent experiments. One-way ANOVA was used to determine the significances of differences: ^# p < 0.05 compared to the control group without α-MSH treatment. ** p < 0.01 and * p < 0.05 compared to the α-MSH-treated control group.
Cellular tyrosinase activity assay was performed by measuring the rate of oxidation of L-DOPA [35]. B16F10 cells at a density of 5 × 10^4/cells were placed in 6-well dishes and incubated overnight. […] The cells were washed with PBS and lysed in a solution containing 100 µL of 50 mM phosphate buffer (pH 6.5), 0.1 mM phenylmethylsulfonylfluoride (PMSF), and 1% Triton X-100. Then, the cells were placed in a deep freezer machine (−80 °C) for 30 min. After defrosting the cells, the cellular extracts were purified by centrifugation at 12,000 rpm for 30 min at 4 °C. A total of 80 µL the supernatant and 20 µL of L-DOPA (2 mg/mL) were added to a 96-well plate, and the absorbance at a wavelength of 492 nm was measured every 10 min during 1 h at 37 °C with an ELISA plate reader (TECAN, Salzburg, Austria).

[4] = test system: Hs27 fibroblast cells; test: Cell viability, EZ-Cytox assay, Hs27; assay type: cell-based, human; conditions: up to 10 µM, 48 h
Protocol: (§7) Figure 3 Cell viability of BHCP on B16F10 melanoma (a) and Hs27 fibroblast cells (b). Cells were treated with various concentrations (0–10 μM) of BHCP for 24 h and 48 h, respectively, and cell viability was measured by EZ-Cytox assay.
(§8) The viability of cells was assessed using the EZ-Cytox kit assay. In brief, B16F10 cells and Hs27 fibroblasts were seeded into a 96-well plate at a density of 1 × 10^4 cells/well and incubated at 37 °C for 24 h. The cells were fed fresh, serum-free DMEM that contained different concentrations (0, 1, 2, 5, and 10 µM) of BHCP, and incubated for 24 and 48 h. Subsequently, 10 μL of EZ-Cytox solution was loaded into each well and the cells were incubated for 2–4 h. The absorbance measurement of cells in the absence of any treatment was regarded as 100% cell survival. Each treatment was performed in triplicate and each experiment was repeated three times.

[5] = test system: MMP-1; test: Western blot, MMP-1 expression in UV-induced Hs27 cells; assay type: cell-based, human; conditions: 1 and 10 µM, 24 h, then UV (50 mJ/cm2) 24 h
Protocol: (§9) Figure 7 Effects of BHCP on the expression levels of MMP-1, MMP-9, MMP-12, and MMP-13 in UV-induced Hs27 human fibroblast cells. Cells were preincubated with or without 1 and 10 μM BHCP for 24 h and were stimulated with UV (50 mJ/cm^2) for an additional 24 h. Harvested cells were lysed and then examined for the expression levels of MMP-1, MMP-9, MMP-12, and MMP-13 by Western blotting (a); The protein levels of MMP-1 (b); MMP-9 (c); MMP-12 (d); and MMP-13 (e) were quantitated with CS analyzer software. MMP-1, MMP-9, MMP-12, and MMP-13 protein levels were normalized by β-actin. Data are expressed as mean ± S.E.M. of three independent experiments. ^# p < 0.05 versus untreated control; * p < 0.05 versus UV stimulation.
as §2

[6] = test system: MMP-9; test: Western blot, MMP-9 expression in UV-induced Hs27 cells; assay type: cell-based, human; conditions: 1 and 10 µM, 24 h, then UV (50 mJ/cm2) 24 h
Protocol: as §9, §2

[7] = test system: MMP-13; test: Western blot, MMP-13 expression in UV-induced Hs27 cells; assay type: cell-based, human; conditions: 1 and 10 µM, 24 h, then UV (50 mJ/cm2) 24 h
Protocol: as §9, §2

[8] = test system: B16F10 melanoma cells; test: Melanin content in α-MSH-induced B16F10 cells; assay type: cell-based, murine; conditions: 24 h pretreatment then α-MSH (5 µM) 48 h, α-MSH only control 186%
Protocol: as §6
The effect of BHCP on α-MSH-induced melanogenesis in B16F10 cells was based on a previously used method with slight modifications. Briefly, B16F10 cells (5 × 10^4 cells/well) in 6-well plates were allowed to grow to 70–80% confluence. […] After treatment, the cells were washed twice with ice-cold PBS, dissolved in 90 µL 1 M NaOH solution including DMSO (5%) at 60 °C for 1 h, and the absorbance was measured at 405 nm with a microplate spectrophotometer (TECAN, Salzburg, Austria). To measure the amount of melanin in the experiment, the rate of inhibition in the treatment groups were calculated from the absorbance of the known concentrations of synthetic melanin, which were corrected to the total amount of protein that was present in the supernatant of the cell lysates. The absorbance of untreated cells was measured in triplicate.

[9] = biological target: Mushroom tyrosinase (EC 1.14.18.1) (Agaricus bisporus, UniProt C7FF04); test: Kinetic analysis of tyrosinase inhibition (Lineweaver-Burk and Dixon plots); assay type: biochemical; conditions: Lineweaver-Burk plot
Text: Furthermore, the mechanism responsible for tyrosinase inhibition by BHCP was investigated by enzyme kinetic analysis in the present study (Table 1 and Figure 2). Lineweaver–Burk plots were drawn using the data obtained from the kinetic studies, and the inhibition constant (Ki) was obtained from the Dixon plots. The Lineweaver–Burk double reciprocal plots indicated competitive-type inhibition. […] Moreover, intercepts on the x-axis of Dixon plots are commonly used to determine the types of enzyme inhibition constants (Ki) for an enzyme–inhibitor complex, where the value of the x-axis indicates the value of −Ki.
Figure 2 Lineweaver–Burk (a,c) and Dixon (b,d) plots for tyrosinase enzyme inhibition by BHCP. […]
To determine the kinetic mechanisms, two kinetic methods (Lineweaver–Burk and Dixon plots) were complementarily used. For the Lineweaver–Burk double reciprocal plots (a plot of 1/enzyme velocity (1/V) versus 1/substrate concentration (1/[S])), the inhibition type was determined using various concentrations of L-tyrosine (1, 2, and 4 mM) and L-DOPA (0.5, 1, and 2 mM) as substrates in the presence of different concentrations of BHCP. […]

[10] = test system: B16F10 melanoma cells; test: Cell viability, EZ-Cytox assay, B16F10; assay type: cell-based, murine; conditions: up to 10 µM, 48 h
Protocol: as §7, §8

[11] = test system: p-CREB; test: Western blot, phosphorylation of CREB in α-MSH-stimulated B16F10 cells; assay type: cell-based, murine; conditions: 1 and 10 µM, 24 h, then α-MSH (5 µM) 48 h
Protocol: as §1, §2

[12] = test system: p65; test: Western blot, cytosol p65 in UV-induced Hs27 cells; assay type: cell-based, human; conditions: 1 and 10 µM, 24 h, then UV (50 mJ/cm2) 24 h; normalized to β-actin
Protocol: as §3, §4, §5

[13] = test system: MMP-12; test: Western blot, MMP-12 expression in UV-induced Hs27 cells; assay type: cell-based, human; conditions: 1 and 10 µM, 24 h, then UV (50 mJ/cm2) 24 h
Protocol: as §9, §2

[14] = test system: MITF; test: Western blot, MITF protein level in α-MSH-stimulated B16F10 cells; assay type: cell-based, murine; conditions: 1 and 10 µM, 24 h, then α-MSH (5 µM) 48 h; normalized by β-actin
Protocol: as §1, §2

Chain of Mushroom tyrosinase (EC 1.14.18.1) (G1K3P4 entry or part of it): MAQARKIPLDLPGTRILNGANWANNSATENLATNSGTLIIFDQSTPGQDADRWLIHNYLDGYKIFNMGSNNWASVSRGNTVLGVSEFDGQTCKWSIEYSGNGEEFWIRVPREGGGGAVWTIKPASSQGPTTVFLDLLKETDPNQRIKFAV
Chain of Mushroom tyrosinase (EC 1.14.18.1) (C7FF04 1-392): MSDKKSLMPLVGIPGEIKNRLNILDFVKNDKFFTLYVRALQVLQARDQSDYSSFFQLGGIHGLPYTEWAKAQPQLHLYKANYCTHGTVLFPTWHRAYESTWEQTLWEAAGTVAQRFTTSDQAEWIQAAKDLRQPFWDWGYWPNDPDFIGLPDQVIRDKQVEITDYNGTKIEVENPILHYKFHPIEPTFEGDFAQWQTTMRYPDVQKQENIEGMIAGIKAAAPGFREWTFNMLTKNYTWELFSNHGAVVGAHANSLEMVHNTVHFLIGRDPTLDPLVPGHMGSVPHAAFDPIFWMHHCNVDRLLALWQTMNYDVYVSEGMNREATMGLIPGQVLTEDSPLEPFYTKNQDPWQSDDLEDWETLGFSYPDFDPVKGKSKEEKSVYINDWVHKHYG

| SMILES | Tyrosinase protein level [1] | Nucleus p-p65 (Ser536) protein level [2] | Cellular tyrosinase activity ([3]; 1 µM) [%] | Cellular tyrosinase activity ([3]; 5 µM) [%] | Cellular tyrosinase activity ([3]; 10 µM) [%] | Cell viability (survival) of Hs27 cells [4] | MMP-1 expression [5] | MMP-9 expression [6] | MMP-13 expression [7] | Melanin content ([8]; 1 µM) [%] | Melanin content ([8]; 5 µM) [%] | Melanin content ([8]; 10 µM) [%] | Inhibition Type (L-DOPA) ([9]; substrate L-DOPA) | Inhibition Type (L-Tyrosine) ([9]; substrate L-tyrosine) | Cell viability (survival) of B16F10 cells [10] | Phosphorylation of CREB [11] | Total p65 in the cytoplasm [12] | MMP-12 expression [13] | MITF protein level [14] | Cellular tyrosinase activity [3] [%] |
| --- | --- | --- | --- | --- | --- | --- | --- | --- | --- | --- | --- | --- | --- | --- | --- | --- | --- | --- | --- | --- |
| COc1ccc(/C=C2\CC/C(=C\c3ccc(OC)c(O)c3)C2=O)cc1O [BHCP, (2E,5E)-2,5-bis(3-hydroxy-4-methoxybenzylidene)cyclopentanone] | decreased these protein levels | decreased | 120 | 116 | 105 | did not reduce the survival | decreased expression in a dose-dependent manner | decreased expression in a dose-dependent manner | decreased expression in a dose-dependent manner | 113 | 106 | 102 | competitive inhibitor | competitive inhibitor | did not reduce the survival | significantly suppressed | restored | decreased expression in a dose-dependent manner | decreased these protein levels | – |
| O=c1cc(CO)occ1O [Kojic acid, reference compound] | – | – | – | – | – | – | – | – | – | – | – | – | – | – | – | – | – | – | – | 131 |
